Test results published in patent publication US20090274626A1, “TARGETING TNF-alpha CONVERTING ENZYME(TACE)- DEPENDENT GROWTH FACTOR SHEDDING IN CANCER THERAPY” (The Regents of the University of California, priority 2005, published 2009).
“Also recorded” adds a separate entry of the source.

Assays:
MCF-7 = test: ELISA of AREG shedding from MCF-7 cells; assay type: cell-based, human; conditions: MCF-7, 20 μM TAPI-2, 90 minutes
Protocol: (§1) FIG. 8. Suppression of growth factor shedding by TAPI-2 in a panel of breast cancer cell lines. A: Three AREG-expressing breast cancer cell lines were identified. Equal number of cells were treated with 20 μM TAPI-2 or vehicle for 90 minutes and AREG shedding was quantified by ELISA. B: Two breast cancer cell lines expressing TGFα were identified and treated as described in (A). TAPI-2 suppresses TGFα shedding.
(§2) ELISA. Equal numbers of cells were washed three times and allowed to condition medium for 90 minutes. The amount of AREG and TGFα accumulating in the medium was determined by using specific ELISA assays (R & D Systems, Minneapolis, Minn.) according to the manufacturer's instructions.

S1 cells = test: Acinar morphogenesis of S1 cells in the presence of soluble EGF; assay type: cell-based, human; conditions: data not shown
Protocol: Cell culture All reagents were purchased from SIGMA (St. Louis, Mo.) except where otherwise noted. HMT3522 cells were cultivated on 2D and 3D substrata in H14 medium, a 50:50 mix of DMEM/F12 (UCSF Cell culture Facility, San Francisco, Calif.) supplemented with 5 μg/ml prolactin, 250 ng/ml insulin, 1.4×10^−6 M hydrocortisone, 10^−10 M β-estradiol, 2.6 ng/ml sodium selenite and 10 μg/ml transferrin. S1 cells were additionally supplemented with 10 ng/ml EGF. In various experiments, cells were supplemented with AREG, TACE, TGFα. In all cases, AREG and TGFα were used at the same molar concentration as EGF ([…]).

[1] = tested on: signaling kinases downstream of the EGFR; test: Western blot of basal activity of signaling kinases downstream of the EGFR in T4-2 cells; assay type: cell-based, human; conditions: addition of TAPI-2
Protocol: Western blotting. Cells were lysed in 50 mM Tris.HCl pH 7.5, 150 mM NaCl, 0.5% NP40 supplemented with protease and phosphatase inhibitors (Calbiochem, San Diego, Calif.) and clarified by centrifugation. 50 μg of each sample was fractionated by SDS-PAGE, transferred to nitrocellulose membranes and probed with antibodies against the following proteins: phospho-MAPK, Total MAPK, phospho-p70S6-Kinase, (Cell Signaling Technology, MA). E-cadherin (BD Biosciences, CA) was used as a loading control. Blots were developed using Supersignal West Femto (Pierce, Rockland, Ill.). Images were captured using a Fluor Chem 8900 imager (Alpha Innotech, San Leandro, Calif.).

T4-2 cells [2] = test: ELISA of EGFR ligands in conditioned medium of T4-2 3D lrECM cultures; assay type: cell-based, human; conditions: TAPI-2 treatment as printed in legend
Protocol: (§3) Silencer™ siRNAs against TACE (Ambion, Austin, Tex.) were also transfected in according to the Reverse Transfection protocol of Invitrogen. siRNAs against the following TACE sense strand sequences were transfected either individually (100 nM) or as a pool (33.3 nM each): […]tt (SEQ ID NO: 2), GCAGCAt[…]tt (SEQ ID NO:3) and […]tt (SEQ ID NO: 4). For 3D culture assays, T4-2 cells were trypsinized post-transfection and plated as single cells in Matrigel. Knockdown was assessed by western blot from a parallel transfection 48 hrs post-transfection. Random siRNA sequence was used as a negative control.
as §2

T4-2 cells [3] = test: Relative proliferation of T4-2 cells with AG 1478 with or without TAPI-2 (sensitization, FIG. 5); assay type: cell-based, human; conditions: 10 μM TAPI-2; shift of AG 1478 proliferation curve
Protocol: FIG. 5. […] T4-2 cells were allowed to adhere to 48 well plates. Drugs were added at the indicated concentrations. Conditions were analyzed in triplicate. For comparison, all data were normalized to the 100%.
(FIG. 5) In this experiment, T4-2 cells were allowed to adhere to 48 well plates. Drugs, AG 1478 and TAPI-2, were added at various concentrations of 0.001 μM, 0.01 μM, 0.1 μM, 1 μM, 10 μM and 100 μM. Conditions were analyzed in triplicate. For comparison, all data were normalized to the 100%.

ZR75B = test: ELISA of AREG shedding from ZR75B cells; assay type: cell-based, human; conditions: 20 μM TAPI-2, 90 minutes
Protocol: as §1, §2

MDA-MB-468 = test: ELISA of TGFα shedding from MDA-MB-468 cells; assay type: cell-based, human; conditions: MDA-MB-468, 20 μM TAPI-2, 90 minutes
Protocol: as §1, §2

T4-2 cells [4] = test: Proliferation assay (WST) of T4-2 cells in 2D culture; assay type: cell-based, human
Protocol: Proliferation assays. HMT3522 cells were seeded in 96 well plates and treated (in triplicate) as described in the figure legends. To determine relative growth, 0.1 volumes of WST cell proliferation analysis reagent (Roche, Indianapolis, Ind.) was added to the medium and its formazan metabolite was measured by absorbance at 460 nm.

HCC1500 = test: ELISA of AREG and TGFα shedding from HCC1500 cells; assay type: cell-based, human; conditions: HCC1500, 20 μM TAPI-2, 90 minutes
Protocol: as §1, §2

[5] = tested on: T4-2 cells expressing TGFαΔTM; test: 3D culture of T4-2 cells expressing soluble TGFα (TGFαΔTM): colony size and morphology; assay type: cell-based, human; conditions: T4-2 cells producing soluble TGFα
Protocol: (§4) For 3D lrECM culture, T4-2 cells were seeded at 21000 cells per cm^2 on top of Matrigel, overlaid with H14 medium containing 5% Matrigel (BD Biosciences, San Jose, Calif.), and treated with 80 nM AG1478, 20 μM TAPI-2 or the relevant vehicle controls.
(§5) Amphotropic retroviruses were generated by transfection (Lipofectamine; Invitrogen, Carlsbad, Calif.) of the Phoenix packaging cell line (a gift of Dr. Gary Nolan, Stanford) with pBM-IRES-Puro or derivatives containing the AREG or TGFα open reading frames. Two million phoenix cells per 6 cm dish were plated the day prior to transfection and transfected with 2 μg of the appropriate retroviral construct. Retrovirus-containing culture medium was harvested after 48 hrs, supplemented with polybrene to 5 μg/ml and added to HMT3522 cells at 30-50% confluence. Pools of stable infectants were selected in 1 μg/ml puromycin.
(§6) Cloning of pro-AREG and pro-TGFα. The open reading frames of these genes were amplified by PCR from T4-2 cDNA. […]
(§7) Quantitation of colony size in the 3D lrECM culture was performed by image analysis. […] The high resolution digital images were then analyzed using NIH Image analysis software and the cross-sectional area of each colony was determined for many colonies. This process was hand-curated to ensure that aggregates of colonies were not measured as a single colony.

T4-2 cells [6] = test: Cytotoxicity of TAPI-2 at the concentration used; assay type: cell-based, human; conditions: data not shown
T4-2 cells [7] = test: 3D lrECM (Matrigel) culture of T4-2 cells: reversion of malignant phenotype, polarity, colony size; assay type: cell-based, human
Protocol: as §4, §3
Indirect immunofluorescence. Colonies were solubilized from […] culture by shaking in PBS/0.05M EDTA on ice for 30 mins, fixed in 4% paraformaldehyde, permeabilized, stained with anti-α6-integrin (Chemicon, Temecula, Calif.) and counterstained with DAPI.
Quantitation of colony size in the 3D lrECM culture was performed by image analysis. Representative images were captured using a digital camera attached to a phase contrast microscope. The high resolution digital images were then analyzed using NIH Image analysis software and the cross-sectional area of each colony was determined for many colonies. This process was hand-curated to ensure that aggregates of colonies were not measured as a single colony.

[8] = tested on: T4-2 cells expressing AREGΔTM; test: 3D culture of T4-2 cells expressing soluble AREG (AREGΔTM): colony size and morphology; assay type: cell-based, human; conditions: T4-2 cells producing soluble AREG
Protocol: as §4, §5, §6, §7

T4-2 cells [9] = test: ELISA of AREG and TGFα shed into conditioned medium of T4-2 cells; assay type: cell-based, human; conditions: TAPI-2-treated T4-2 cells
Protocol: as §3, §2

[10] = tested on: LPS-stimulated human peripheral blood mononuclear cells (PBMC); conditions: cited from earlier work
TACE = TACE (Homo sapiens, UniProt P78536); conditions: cited from earlier work
Sequence of TACE (P78536 215-824): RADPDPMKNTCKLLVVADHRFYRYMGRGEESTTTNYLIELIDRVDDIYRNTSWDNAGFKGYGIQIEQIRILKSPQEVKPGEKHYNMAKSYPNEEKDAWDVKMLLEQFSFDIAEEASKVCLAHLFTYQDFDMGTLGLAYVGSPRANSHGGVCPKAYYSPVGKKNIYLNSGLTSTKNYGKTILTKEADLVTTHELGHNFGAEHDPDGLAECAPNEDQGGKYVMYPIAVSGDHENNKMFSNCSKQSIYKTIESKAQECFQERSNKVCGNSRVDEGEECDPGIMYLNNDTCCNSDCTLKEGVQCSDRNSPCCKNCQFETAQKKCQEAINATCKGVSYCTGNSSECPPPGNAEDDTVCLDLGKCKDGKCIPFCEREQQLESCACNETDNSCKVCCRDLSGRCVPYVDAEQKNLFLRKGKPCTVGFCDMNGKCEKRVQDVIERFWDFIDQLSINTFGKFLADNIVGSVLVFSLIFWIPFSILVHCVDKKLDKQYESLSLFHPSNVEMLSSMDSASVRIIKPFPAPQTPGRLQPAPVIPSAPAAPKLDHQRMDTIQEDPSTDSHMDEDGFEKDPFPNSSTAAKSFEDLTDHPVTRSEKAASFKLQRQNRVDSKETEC

CC(C)C[C@H](CC(=O)NO)C(=O)N[C@H](C(=O)N[C@@H](C)C(=O)NCCN)C(C)(C)C [TAPI-2, N—(R)-[2-(Hydroxyaminocarbonyl)methyl]-4-methylpentanoyl-L-t-butyl-alanyl-L-alanine, 2-aminoethyl Amide]
AREG shedding (MCF-7): significantly reduced ligand shedding
interference with normal acinar morphogenesis of S1 cells (S1 cells): nor did it interfere with the ability of S1 cells to execute normal acinar morphogenesis
basal activities of signaling kinases downstream of the EGFR [1]: significantly suppressed
levels of shed ligands in conditioned medium (FIG. 6C) (T4-2 cells [2]): reduced
sensitization of T4-2 cells to small molecule EGFR inhibitor (AG1478) (T4-2 cells [3]): sensitizes T4-2 cells to the effect of the EGFR inhibitor, AG1478; also recorded: four-fold sensitization
AREG shedding (ZR75B): significantly reduced ligand shedding
TGFα shedding (MDA-MB-468): significantly reduced ligand shedding
TAPI-2-induced reduction of T4-2 proliferation on addition of EGF (T4-2 cells [4]; 2D culture, soluble/exogenous EGF added): overcome by addition of exogenous EGF; also recorded: completely overcome by addition of soluble EGF
proliferation of T4-2 cells (T4-2 cells [4]; 2D cultures, vs 0 μM TAPI-2): dose-dependent decrease in proliferation; also recorded: dose-dependent reduction in T4-2 cell proliferation
AREG shedding (HCC1500): significantly reduced ligand shedding
TGFα shedding (HCC1500): significantly reduced ligand shedding
response to TAPI-2 by criteria of colony size and morphology [5]: completely resistant to TAPI-2
cytotoxicity (T4-2 cells [6]): not cytotoxic at the concentration used
restoration of epithelial polarity (basal localization of α6-integrin) (T4-2 cells [7]; 3D culture, TAPI-2 vs vehicle): restoration of epithelial polarity
colony size (cross-sectional area) vs vehicle (T4-2 cells [7]; 3D culture, four days, p<0.001): significantly smaller than those formed by cells treated with vehicle alone; also recorded: significantly different from controls
reversion of the malignant phenotype of T4-2 cells (T4-2 cells [7]; 3D lrECM culture, 80 nM AG1478 or 20 μM TAPI-2 vs vehicle): resulted in a reversion of the malignant phenotype
response to TAPI-2 by criteria of colony size and morphology [8]: completely resistant to TAPI-2
shedding of AREG (ELISA of CM) (T4-2 cells [9]): suppresses the shedding of both AREG and TGFα
shedding of TGFα (ELISA of CM) (T4-2 cells [9]): suppresses the shedding of both AREG and TGFα

TRWLVYFSRPYLVAT (synthetic peptide shown to inhibit TACE activity)
TNF-alpha release [10]: inhibit the TNF-alpha release
binding to TACE (TACE): bind to TACE
